How the values were obtained:
[1] = system: giant foxtail; experiment: Test A pre-/postemergence herbicide test; format: in vivo, Setaria faberi
In short: (§1)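 Pre: seeded sandy loam, directed soil spray, compound in non-phytotoxic solvent + surfactant. Post: 1–2-leaf plants (2–10 cm), sprayed to runoff. Greenhouse ~10 d; visual injury vs untreated, 0–100 scale.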

[2] = system: lambsquarters; experiment: Test B pre-/postemergence herbicide test; format: in vivo, Chenopodium album; conditions: for Lambsquarters plant response rating: postemergence, visual rating
In short: (§2)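 Response was scored visually 13 to 15 days after treatment against untreated greenhouse controls, 0 meaning no effect and 100 complete control. Formulations (solvent mixture plus surfactant) went onto soil after planting, onto foliage of 1- to 4-leaf plants, and onto 2-leaf plants in a flooded paddy set including rice and barnyardgrass.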

[3] = system: morningglory; experiment: Test B pre-/postemergence herbicide test; format: in vivo, Ipomoea coccinea; conditions: for Morningglory plant response rating: postemergence, visual rating
In short: (§3)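 Pre: seeds sown, then sprayed. Post: 1–4-leaf plants (2–18 cm) sprayed at the same time. Paddy: flooded, treated at 2-leaf stage. Formulation: non-phytotoxic solvent with surfactant. Greenhouse 13–15 days; visual 0–100 score relative to controls.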

[4] = system: large crabgrass; experiment: Test B pre-/postemergence herbicide test; format: in vivo, Digitaria sanguinalis
In short: as §2

[5] = system: barnyardgrass; experiment: Test B flooded paddy test; format: in vivo, Echinochloa crus-galli; conditions: 1000 g ai/ha, visual rating, scale 0 to 100 (0 no effect, 100 complete control), 13 to 15 days
In short: (§4)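 Read-out: visual comparison with controls, scored 0 to 100, where 100 means complete control and 0 no effect. Formulated chemicals were applied postemergence to plants 2–18 cm tall (1- to 4-leaf), or to flooded-paddy plants at the 2-leaf stage, then held 13 to 15 days under glass.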

[6] = system: corn; experiment: Test B pre-/postemergence herbicide test; format: in vivo, Zea mays
In short: as §2

[7] = system: morningglory; experiment: Test A pre-/postemergence herbicide test; format: in vivo, Ipomoea spp.
In short: as §1

[8] = system: barnyardgrass; experiment: Test B pre-/postemergence herbicide test; format: in vivo, Echinochloa crus-galli
In short: as §3

[9] = system: rice; experiment: Test B flooded paddy test; format: in vivo, Oryza sativa; conditions: 1000 g ai/ha, visual rating, scale 0 to 100 (0 no effect, 100 complete control), 13 to 15 days
In short: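 Postemergence plants were sprayed with formulated test chemicals at 2 to 18 cm height (1- to 4-leaf stage); paddy species were grown to the 2-leaf stage. After 13 to 15 days in a greenhouse, injury was rated visually against untreated controls on a 0–100 scale (0 = no effect, 100 = complete control).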

[10] = system: large crabgrass; experiment: Test A pre-/postemergence herbicide test; format: in vivo, Digitaria sanguinalis
In short: as §1

[11] = system: ducksalad; experiment: Test B flooded paddy test; format: in vivo, Heteranthera limosa; conditions: 1000 g ai/ha, visual rating, scale 0 to 100 (0 no effect, 100 complete control), 13 to 15 days
In short: as §4

[12] = system: blackgrass; experiment: Test B postemergence herbicide test; format: in vivo, Alopecurus myosuroides; conditions: scale 0 (no effect) to 100 (complete control); for Plant response rating, Blackgrass: Postemergence, 500 g ai/ha, visual rating after 13 to 15 days; for Blackgrass plant response rating: postemergence, 125 g ai/ha, visual rating
In short: as §4

[13] = system: pigweed; experiment: Test B pre-/postemergence herbicide test; format: in vivo, Amaranthus retroflexus; conditions: for Pigweed plant response rating: postemergence, visual rating
In short: as §2

[14] = system: redroot pigweed; experiment: Test A pre-/postemergence herbicide test; format: in vivo, Amaranthus retroflexus
In short: as §1

[15] = system: wheat; experiment: Test B postemergence herbicide test; format: in vivo, Triticum aestivum; design: key to Wheat plant response rating: 0 = no effect, 100 = complete control; conditions: scale 0 (no effect) to 100 (complete control); for Plant response rating, Wheat: Postemergence, 500 g ai/ha, visual rating after 13 to 15 days; for Wheat plant response rating: postemergence, 125 g ai/ha, visual rating
In short: as §4

[16] = system: velvetleaf; experiment: Test B pre-/postemergence herbicide test; format: in vivo, Abutilon theophrasti; conditions: for Velvetleaf plant response rating: postemergence, visual rating
In short: as §2

[17] = system: Surinam grass; experiment: Test B pre-/postemergence herbicide test; format: in vivo, Urochloa decumbens; conditions: for Surinam Grass plant response rating: postemergence, visual rating
In short: as §2

[18] = system: giant foxtail; experiment: Test B pre-/postemergence herbicide test; format: in vivo, Setaria faberi
In short: as §2

[19] = system: barnyardgrass; experiment: Test A pre-/postemergence herbicide test; format: in vivo, Echinochloa crus-galli
In short: as §1

[20] = system: wild oat; experiment: Test B postemergence herbicide test; format: in vivo, Avena fatua; conditions: scale 0 (no effect) to 100 (complete control); for Plant response rating, Oat, Wild: Postemergence, 500 g ai/ha, visual rating after 13 to 15 days; for Oat, Wild plant response rating: postemergence, 125 g ai/ha, visual rating
In short: as §4

[21] = system: small flower umbrella sedge; experiment: Test B flooded paddy test; format: in vivo, Cyperus difformis; conditions: 1000 g ai/ha, visual rating, scale 0 to 100 (0 no effect, 100 complete control), 13 to 15 days
In short: as §4

[22] = system: rice; experiment: Test B pre-/postemergence herbicide test; format: in vivo, Oryza sativa; conditions: preemergence
In short: as §2

[23] = system: cocklebur; experiment: Test B pre-/postemergence herbicide test; format: in vivo, Xanthium strumarium
In short: as §3

[24] = system: velvetleaf; experiment: Test A pre-/postemergence herbicide test; format: in vivo, Abutilon theophrasti
In short: as §1

[25] = Postemergence, 500 g ai/ha, 0 to 100 scale, 0 no effect, 100 complete control
[26] = Postemergence, 2000 g ai/ha, 0 to 100 scale, 0 no effect, 100 complete control
[27] = Preemergence, 500 g ai/ha, visual rating, 0 to 100 scale (0 no effect, 100 complete control)
[28] = Preemergence, 2000 g ai/ha, 0 to 100 scale, 0 no effect, 100 complete control
[29] = Postemergence, 500 g ai/ha, visual rating after 13 to 15 days, scale 0 (no effect) to 100 (complete control)
[30] = 125 g ai/ha, scale 0 (no effect) to 100 (complete control)
[31] = preemergence, 125 g ai/ha, 0 to 100 scale, 0 is no effect, 100 is complete control
[32] = Preemergence, 500 g ai/ha, scale 0 to 100
[33] = postemergence, 125 g ai/ha, visual rating, scale 0 (no effect) to 100 (complete control)
[34] = 125 g ai/ha, 0 to 100 scale, 0 is no effect, 100 is complete control
[35] = Preemergence, 2000 g ai/ha, visual rating, 0 to 100 scale (0 no effect, 100 complete control)
[36] = 500 g ai/ha, visual rating 0-100, 0 no effect, 100 complete control, preemergence

CCn1nc(C(C)(C)C)cc1C(=O)Nc1cccc(C(=O)OCC(F)(F)F)c1 [Compound 83]
10: Barnyardgrass plant response rating [5] | Corn plant response rating [6, 33] | Plant response rating, Morningglory [7, 25] | Plant response rating, Morningglory [7, 26] | Morningglory plant response rating [7, 28] | Barnyardgrass plant response rating [8, 33] | Rice plant response rating [9] | Plant response rating, Foxtail, Giant [18, 29] | Oat, Wild plant response rating [20]
50: Plant response rating, Barnyardgrass [8, 29] | Velvetleaf plant response rating [16, 30] | Sedge, Umbrella plant response rating [21]
20: Plant response rating, Foxtail, Giant [1, 25] | Plant response rating, Foxtail, Giant [1, 26] | Wheat plant response rating [15] | Surinam Grass plant response rating [17, 30] | Plant response rating, Barnyardgrass [19, 26] | Plant response rating, Oat, Wild [20] | Plant response rating, Cocklebur [23, 29] | Plant response rating, Velvetleaf [24, 26]
30: Plant response rating, Morningglory [3, 29] | Plant response rating, Crabgrass, Large [4, 29] | Crabgrass, Large plant response rating [4, 33] | Plant response rating, Corn [6, 29] | Morningglory plant response rating [7, 27] | Plant response rating, Crabgrass, Large [10, 25] | Ducksalad plant response rating [11] | Plant response rating, Wheat [15]
45: Plant response rating, Pigweed [14, 25]
60: Plant response rating, Lambsquarters [2, 29]
70: Pigweed plant response rating [13, 30] | Plant response rating, Velvetleaf [16, 29]
100: Plant response rating, Pigweed [13, 29]
0: Foxtail, Giant plant response rating [1, 27] | Foxtail, Giant plant response rating [1, 28] | Lambsquarters plant response rating [2, 30] | Plant response rating, Lambsquarters [2, 31] | Morningglory plant response rating [3, 30] | Plant response rating, Morningglory [3, 31] | Crabgrass, Large plant response rating [4, 32] | Plant response rating, Crabgrass, Large [4, 31] | Corn plant response rating [6, 32] | Plant response rating, Corn [6, 31] | Barnyardgrass plant response rating [8, 32] | Plant response rating, Barnyardgrass [8, 31] | Crabgrass, Large plant response rating [10, 27] | Crabgrass, Large plant response rating [10, 28] | Plant response rating, Blackgrass [12] | Blackgrass plant response rating [12] | Plant response rating, Pigweed [13, 31] | Pigweed plant response rating [14, 27] | Pigweed plant response rating [14, 28] | Plant response rating, Velvetleaf [16, 31] | Plant response rating, Surinam Grass [17, 31] | Foxtail, Giant plant response rating [18, 32] | Foxtail, Giant plant response rating [18, 33] | Plant response rating, Foxtail, Giant [18, 31] | Barnyardgrass plant response rating [19, 27] | Barnyardgrass plant response rating [19, 28] | Plant response rating, Rice [22, 34] | Cocklebur plant response rating [23, 32] | Cocklebur plant response rating [23, 33] | Velvetleaf plant response rating [24, 27] | Velvetleaf plant response rating [24, 35]
40: Plant response rating, Surinam Grass [17, 29]
25: Plant response rating, Crabgrass, Large [10, 26]
5: Plant response rating, Barnyardgrass [19, 25]
55: Plant response rating, Pigweed [14, 26]

CCCOC(=O)c1cccc(NC(=O)c2cc(C(C)(C)C)nn2CC)c1C [Compound 90]
70: Plant response rating, Crabgrass, Large [4, 36] | Pigweed plant response rating [14, 28]
90: Plant response rating, Lambsquarters [2, 36]
60: Foxtail, Giant plant response rating [1, 28] | Plant response rating, Foxtail, Giant [18, 36] | Plant response rating, Cocklebur [23, 29]
80: Plant response rating, Pigweed [13, 36]
10: Plant response rating, Morningglory [3, 36] | Morningglory plant response rating [3, 30] | Plant response rating, Crabgrass, Large [4, 29] | Crabgrass, Large plant response rating [4, 33] | Plant response rating, Crabgrass, Large [4, 31] | Barnyardgrass plant response rating [5] | Plant response rating, Corn [6, 29] | Corn plant response rating [6, 33] | Morningglory plant response rating [7, 25] | Plant response rating, Morningglory [7, 26] | Plant response rating, Barnyardgrass [8, 31] | Rice plant response rating [9] | Plant response rating, Blackgrass [12] | Plant response rating, Pigweed [13, 31] | Plant response rating, Wheat [15] | Wheat plant response rating [15] | Velvetleaf plant response rating [16, 30] | Plant response rating, Surinam Grass [17, 29] | Surinam Grass plant response rating [17, 30] | Plant response rating, Foxtail, Giant [18, 29] | Foxtail, Giant plant response rating [18, 33] | Plant response rating, Foxtail, Giant [18, 31] | Oat, Wild plant response rating [20] | Cocklebur plant response rating [23, 33] | Velvetleaf plant response rating [24, 25]
25: Foxtail, Giant plant response rating [1, 27] | Plant response rating, Crabgrass, Large [10, 26] | Pigweed plant response rating [14, 27]
35: Crabgrass, Large plant response rating [10, 27] | Velvetleaf plant response rating [24, 35]
15: Crabgrass, Large plant response rating [10, 25]
75: Crabgrass, Large plant response rating [10, 28]
40: Plant response rating, Morningglory [3, 29] | Plant response rating, Pigweed [13, 29] | Plant response rating, Pigweed [14, 26]
50: Plant response rating, Lambsquarters [2, 29] | Lambsquarters plant response rating [2, 30] | Barnyardgrass plant response rating [19, 28] | Sedge, Umbrella plant response rating [21]
30: Morningglory plant response rating [7, 28] | Plant response rating, Barnyardgrass [8, 29] | Ducksalad plant response rating [11] | Pigweed plant response rating [13, 30] | Plant response rating, Velvetleaf [16, 29] | Plant response rating, Oat, Wild [20] | Plant response rating, Velvetleaf [24, 26]
0: Plant response rating, Lambsquarters [2, 31] | Plant response rating, Morningglory [3, 31] | Plant response rating, Corn [6, 31] | Morningglory plant response rating [7, 27] | Barnyardgrass plant response rating [8, 33] | Blackgrass plant response rating [12] | Plant response rating, Velvetleaf [16, 31] | Plant response rating, Surinam Grass [17, 31] | Plant response rating, Rice ([22]; 500 g ai/ha, visual rating 0-100, 0 no effect, 100 complete control) | Plant response rating, Rice [22, 34] | Plant response rating, Cocklebur [23, 36] | Plant response rating, Cocklebur [23, 31]
20: Foxtail, Giant plant response rating [1, 25] | Plant response rating, Foxtail, Giant [1, 26] | Plant response rating, Corn [6, 36] | Plant response rating, Barnyardgrass [8, 36] | Pigweed plant response rating [14, 25] | Plant response rating, Velvetleaf [16, 36] | Plant response rating, Surinam Grass [17, 36] | Barnyardgrass plant response rating [19, 25] | Plant response rating, Barnyardgrass [19, 26] | Barnyardgrass plant response rating [19, 27] | Velvetleaf plant response rating [24, 27]

From patent US20060069132A1, “Azolecarboxamide herbicides” (priority 2004, published 2006)
